Test results taken from patent publication US20240317727A1 (Duke University, priority 2018, published 2024).
Read-outs that look alike come from different tables or passages of the source.

How the values were obtained:
[1] = system: C4-2 prostate cancer cells; test: C4-2 cell proliferation, Cell Titre Glo; type: cell-based; settings: Homo sapiens, 48-hour period, 9-point dilution series, read-out: Cell Viability IC50
Method: Next, cell viability of C4-2 prostate cancer cells was determined. C4-2 prostate cancer cells were grown in RMPI-1640 (no L-glutamine, Gibco 21870076) supplemented with 10% fetal bovine […] (non-heat-inactivated, Cytiva Hyclone SH30071.03). […] A 9-point dilution series was used to assess the ability of each compound to inhibit the growth of C4-2 prostate cancer cells over a 48-hour period, as compared to negative control solvent, DMSO. Cell proliferation was measured by the Cell Titre Glo assay using 384 well microtiter plate reader to quantitate luminescence. The IC50 was determined from the values obtained.

[2] = target: T1, purified recombinant human HSF1 (HSF1 DNA binding domain) (Homo sapiens, UniProt Q00613); test: Melting temperature of HSF1 DBD with HSF1 degrader compounds (Sypro orange); settings: read-out: ΔTm (° C.)
T1 sequence (Q00613 15-120): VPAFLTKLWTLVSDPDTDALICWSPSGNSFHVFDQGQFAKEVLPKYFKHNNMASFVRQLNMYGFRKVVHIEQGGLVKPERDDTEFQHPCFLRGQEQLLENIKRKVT
Method: The melting temperature (ΔTm) for purified recombinant human HSF1 (HSF1 DNA binding domain) was determined in the presence of HSF1 degrader compounds shown in Table 5 and compared to the solvent DMSO. Sypro orange dye was added to the HSF1 DBD (5 micromolar final concentration) in buffer, mixed and distributed to wells in 384 well microtiter plates. HSF1 degrader compound (12.5 micromolar) or DMSO solvent was added to three replicate wells per compound concentration, mixed and plates loaded into a Quant Studio thermnocycler and run on a temperature gradient from 25° C. to 85° C. with increments of 0.5° C. steps. Melting curves were obtained and analyzed using the ThermnoFisher Shift Software 1.4 fitted with a Boltzmann equation to determine the change in melting temperature of the protein in the presence of DMSO as compared to compound. The difference in the melting temperature under these two conditions was assigned as the change in melting temperature of ΔTm.

[3] = 12.5 micromolar compound, 5 micromolar HSF1 DBD, compared to DMSO

Row | SMILES | IC50 [1] | ΔTm at 12.5 µM [2, 3] | ΔTm at 12.5 µM [2]
1 | N#Cc1cccc(NC(=O)Nc2ccc(Cl)c([N+](=O)[O-])c2)c1 [Compound 238, 1-(4-chloro-3-nitrophenyl)-3-(3-cyanophenyl)urea] | 3.1 µM | 3.49 °C | –
2 | N#Cc1ccc(NC(=O)Nc2ccc(Cl)c([N+](=O)[O-])c2)cc1 [Compound 239, 1-(4-chloro-3-nitrophenyl)-3-(4-cyanophenyl)urea] | 2.94 µM | 3.13 °C | –
3 | N#Cc1ccc(NC(=O)Nc2ccc(Cl)c([N+](=O)[O-])c2)cc1C(F)(F)F [Compound 240, 1-(4-chloro-3-nitrophenyl)-3-(4-cyano-3-(trifluoromethyl)phenyl)urea] | 0.563 µM | – | 3.01 °C
4 | COc1cc(NC(=O)Nc2ccc(Cl)c([N+](=O)[O-])c2)ccc1C#N [Compound 241, 1-(4-chloro-3-nitrophenyl)-3-(4-cyano-3-methoxyphenyl)urea] | 5.57 µM | 2.63 °C | –
5 | N#Cc1ccc(NC(=O)Nc2ccc3occc3c2)cc1 [Compound 246, 1-(benzofuran-5-yl)-3-(4-cyanophenyl)urea] | > 10 µM | 3.23 °C | –
6 | COc1cc(NC(=O)Nc2ccc(Cl)c(S(=O)(=O)C(F)(F)F)c2)ccc1C#N [Compound 248, 1-(4-chloro-3-((trifluoromethyl)sulfonyl)phenyl)-3-(4-cyano-3-methoxyphenyl)urea] | 3.24 µM | 2.95 °C | –
7 | COc1cc(NC(=O)Nc2ccc3c(c2)S(=O)(=O)C=C3)ccc1C#N [Compound 249, 1-(4-cyano-3-methoxyphenyl)-3-(1,1-dioxidobenzo[b]thiophen-6-yl)urea] | 4.56 µM | 1.5 °C | –
8 | COc1cc(NC(=O)Nc2ccc3nsnc3c2)ccc1C#N [Compound 250, 1-(benzo[c][1,2,5]thiadiazol-5-yl)-3-(4-cyano-3-methoxyphenyl)urea] | > 10 µM | 1.3 °C | –
9 | COc1cc(NC(=O)Nc2ccc3occc3c2)ccc1C#N [Compound 251] | > 10 µM | 2.06 °C | –
10 | N#Cc1ccc(NC(=O)Nc2ccc(C#N)c(C(F)(F)F)c2)cc1C(F)(F)F [Compound 252, 1,3-bis(4-cyano-3-(trifluoromethyl)phenyl)urea] | 2.08 µM | – | 1.33 °C
11 | N#Cc1ccc(NC(=O)Nc2ccc(C#N)cc2)cc1 [Compound 253, 1,3-bis(4-cyanophenyl)urea] | > 10 µM | 1.91 °C | –
12 | N#Cc1ccc(NC(=O)Nc2ccc(F)cc2)cc1C(F)(F)F [Compound 254, 1-(4-cyano-3-(trifluoromethyl)phenyl)-3-(4-fluorophenyl)urea] | 4.02 µM | – | 1.84 °C
13 | N#Cc1ccc(NC(=O)Nc2ccc(F)cc2)cc1 [Compound 255, 1-(4-cyanophenyl)-3-(4-fluorophenyl)urea] | > 10 µM | 2.22 °C | –
14 | N#Cc1ccc(NC(=O)Nc2ccc3c(c2)S(=O)(=O)C=C3)cc1C1CC1 [Compound 259, 1-(4-cyano-3-cyclopropylphenyl)-3-(1,1-dioxidobenzo[b]thiophen-6-yl)urea] | – | 1.25 °C | –
15 | N#Cc1ccc(NC(=O)Nc2ccc3c(c2)S(=O)(=O)C=C3)cc1C1CCCC1 [Compound 260, 1-(4-cyano-3-cyclopentylphenyl)-3-(1,1-dioxidobenzo[b]thiophen-6-yl)urea] | – | 0.5 °C | –
16 | Cc1cc(NC(=O)Nc2ccc3c(c2)S(=O)(=O)C=C3)ccc1C#N [Compound 261, 1-(4-cyano-3-methylphenyl)-3-(1,1-dioxidobenzo[b]thiophen-6-yl)urea] | 2.29 µM | 1.06 °C | –
17 | CCc1cc(NC(=O)Nc2ccc3c(c2)S(=O)(=O)C=C3)ccc1C#N [Compound 262, 1-(4-cyano-3-ethylphenyl)-3-(1,1-dioxidobenzo[b]thiophen-6-yl)urea] | – | 2.47 °C | –
18 | CC(C)c1cc(NC(=O)Nc2ccc3c(c2)S(=O)(=O)C=C3)ccc1C#N [Compound 263, 1-(4-cyano-3-isopropylphenyl)-3-(1,1-dioxidobenzo[b]thiophen-6-yl)urea] | – | 1.25 °C | –
19 | CC(C)(C)c1cc(NC(=O)Nc2ccc3c(c2)S(=O)(=O)C=C3)ccc1C#N [Compound 264, 1-(3-(tert-butyl)-4-cyanophenyl)-3-(1,1-dioxidobenzo[b]thiophen-6-yl)urea] | 2.65 µM | 1.27 °C | –
20 | N#Cc1cccc(NC(=O)Nc2ccc3c(c2)S(=O)(=O)C=C3)n1 [Compound 267, 1-(6-cyanopyridin-2-yl)-3-(1,1-dioxidobenzo[b]thiophen-6-yl)urea] | > 10 µM | -0.19 °C | –

Row | SMILES | IC50 [1] | ΔTm at 12.5 µM [2, 3] | ΔTm at 12.5 µM [2]
21 | N#Cc1cnc(NC(=O)Nc2ccc3c(c2)S(=O)(=O)C=C3)cn1 [Compound 268, 1-(5-cyanopyrazin-2-yl)-3-(1,1-dioxidobenzo[b]thiophen-6-yl)urea] | 7.79 µM | 0.39 °C | –
22 | N#Cc1ncc(NC(=O)Nc2ccc3c(c2)S(=O)(=O)C=C3)cn1 [Compound 269] | > 10 µM | 0.77 °C | –
23 | N#Cc1cnc(NC(=O)Nc2ccc3c(c2)S(=O)(=O)C=C3)nc1 [Compound 270, 1-(5-cyanopyrimidin-2-yl)-3-(1,1-dioxidobenzo[b]thiophen-6-yl)urea] | > 10 µM | 0.01 °C | –
24 | N#Cc1ccc(NC(=O)Nc2ccc3c(c2)C=CS3(=O)=O)o1 [Compound 271, 1-(5-cyanofuran-2-yl)-3-(1,1-dioxidobenzo[b]thiophen-5-yl)urea] | > 10 µM | 0.02 °C | –
25 | N#Cc1ccc(NC(=O)Nc2ccc3c(c2)C=CS3(=O)=O)s1 [Compound 272, 1-(5-cyanothiophen-2-yl)-3-(1,1-dioxidobenzo[b]thiophen-5-yl)urea] | – | 0.86 °C | –
26 | N#Cc1ccc(NC(=O)Nc2cccc([N+](=O)[O-])c2)cc1 [Compound 273, 1-(4-cyanophenyl)-3-(3-nitrophenyl)urea] | – | 1.15 °C | –
27 | N#Cc1ccc(NC(=O)Nc2cccc(C(F)(F)F)c2)cc1 [Compound 274, 1-(4-cyanophenyl)-3-(3-(trifluoromethyl)phenyl)urea] | – | 1.41 °C | –
28 | N#Cc1ccc(NC(=O)Nc2cccc(S(=O)(=O)C(F)(F)F)c2)cc1 [Compound 275, 1-(4-cyanophenyl)-3-(3-((trifluoromethyl)sulfonyl)phenyl)urea] | – | 1.31 °C | –
29 | CS(=O)(=O)Nc1cccc(NC(=O)Nc2ccc(C#N)cc2)c1 [Compound 276, N-(3-(3-(4-cyanophenyl)ureido)phenyl)methanesulfonamide] | – | 0.12 °C | –
30 | N#Cc1ccc(NC(=O)Nc2ccc3c(c2)S(=O)(=O)c2ccccc2-3)cc1 [Compound 277, 1-(4-cyanophenyl)-3-(5,5-dioxidodibenzo[b,d]thiophen-3-yl)urea] | 5.65 µM | -2.3 °C | –
31 | N#Cc1ccc(NC(=O)Nc2ccc3c(c2)C(=O)CCC3)cc1 [Compound 278, 1-(4-cyanophenyl)-3-(8-oxo-5,6,7,8-tetrahydronaphthalen-2-yl)urea] | – | -0.95 °C | –
32 | N#Cc1ccc(NC(=O)Nc2ccc3c(c2)S(=O)(=O)CCC3)cc1 [Compound 279] | > 10 µM | 1.29 °C | –
33 | N#Cc1ccc(NC(=O)Nc2cccc(-c3nnn[nH]3)c2)cc1 [Compound 280, 1-(3-(1H-tetrazol-5-yl)phenyl)-3-(4-cyanophenyl)urea] | – | 0.01 °C | –
34 | CC(=O)N1CCc2ccc(NC(=O)Nc3ccc(C#N)cc3)cc21 [Compound 281, 1-(1-acetylindolin-6-yl)-3-(4-cyanophenyl)urea] | – | -1.92 °C | –
35 | N#Cc1ccc(NC(=O)Nc2ccc3c(c2)CCCS3(=O)=O)cc1 [Compound 282, 1-(4-cyanophenyl)-3-(1,1-dioxidothiochroman-6-yl)urea] | – | -0.97 °C | –
36 | N#Cc1ccc(NC(=O)Nc2ccc3c(c2)C(=O)CC3)cc1 [Compound 283, 1-(4-cyanophenyl)-3-(3-oxo-2,3-dihydro-1H-inden-5-yl)urea] | > 10 µM | 0.1 °C | –
37 | CN(C)CCc1cc(NC(=O)Nc2ccc(Cl)c(S(=O)(=O)C(F)(F)F)c2)ccc1C#N [Compound 284, 1-(4-chloro-3-((trifluoromethyl)sulfonyl)phenyl)-3-(4-cyano-3-(2-(dimethylamino)ethyl)phenyl)urea] | > 10 µM | – | 0.62 °C
38 | CN(C)CCc1ccc(NC(=O)Nc2ccc(C#N)cc2)cc1S(=O)(=O)C(F)(F)F [Compound 287, 1-(4-cyanophenyl)-3-(4-(2-(dimethylamino)ethyl)-3-((trifluoromethyl)sulfonyl)phenyl)urea] | > 10 µM | – | –
39 | N#Cc1ccc(NC(=O)Nc2ccc3c(c2)S(=O)(=O)C=C3)cc1OCCN1CCOCC1 [Compound 295, 1-(4-cyano-3-(2-morpholinoethoxy)phenyl)-3-(1,1-dioxidobenzo[b]thiophen-6-yl)urea] | > 10 µM | – | -0.03 °C
40 | N#CC1CCC(NC(=O)Nc2ccc(Cl)c(C(F)(F)F)c2)CC1 (stereo not drawn) [Compound 300, 1-(4-chloro-3-(trifluoromethyl)phenyl)-3-(4-cyanocyclohexyl)urea] | > 10 µM | – | -0.73 °C
